Assay results reported in PMC12363518, “Azobenzene-Modified Temperature-Responsive Short Elastin-like Peptides for Photo-Controlled Phase Transition” (ACS Synthetic Biology, 2025).
Numbered stars: 1 amine (or outer) side, 2 acyl side, 3 side chain; on linkers, the order of the positions; unused ones are H or OH. Bridge positions count the residues as written; N and C are the ends. Peptide text beside a SMILES is read from it. I, II: the chains in the order shown. X1 = O=C(c1ccc(N=Nc2ccc(C(=O)[*:2])cc2)cc1)[*:1]

How the values were obtained:
[1] = Thermal isomerization in the dark and photostationary state, followed by UV–vis spectroscopy; type: physicochemical
Method: The thermal stability of the ELP–azobenzene conjugates was also investigated by using UV–vis spectroscopy. After measurements under “UV–vis–UV” conditions, each peptide solution was incubated in the dark, and spectral changes were monitored over time (Figure ). […] These findings indicate that the photoswitching behavior of this peptide was more readily controllable than that of the other analogues.
Additionally, the isomerization of Azb-2(K-F2) to a cis-enriched state was induced by irradiation with UV-A light (365 nm), which is a commercially available light source (Figure S4). […] On the other hand, when an LED light with a higher irradiance than that used for spectrum measurements was used as the light source, Azb-2(K-F2) reached a photostationary state in approximately 5 min (Figure S4B). Overall, based on the experimental results, Azb-2(K-F2) appears to be a promising easy-to-handle peptide with both temperature and photoresponsiveness.
The synthesized ELP–azobenzene conjugates were dissolved in PBS buffer (137 mM NaCl, 2.68 mM KCl, 10 mM Na2HPO4, and 2 mM KH2PO4, pH 7.4) to prepare 50 μM solutions. The time-dependent UV–vis spectra of each conjugate were recorded using a JASCO V-660 spectral photometer (JASCO Co., Tokyo) in a quartz cell (optical path length: 10 mm, volume: 400 μL). […] Initially, the absorption spectra of the dark-adapted solution of the ELP–azobenzene conjugate were measured to determine the irradiation wavelength corresponding to its π–π* band. Subsequently, the ELP–azobenzene conjugate solution was irradiated with light corresponding to the π–π* band for 60 min and the absorption spectra were recorded every 10 min. Next, the peptide solution was irradiated with visible light corresponding to the n–π* band for 60 min and the absorption spectra were recorded every 10 min. The peptide solution was then irradiated again with UV light for 60 min and the absorption spectra were recorded every 10 min. Finally, the peptide solution was incubated in the dark conditions and the absorption spectra were recorded every 1 h. […]

[2] = Turbidity measurement (OD600) of temperature-dependent phase separation, Tt; type: physicochemical
Method: The ability of the ELP–azobenzene conjugates to self-assemble was investigated by using turbidity measurements. In addition, we evaluated whether the photoisomerization of the azobenzene moieties induced differences in the aggregation ability of these analogues. Each peptide analogue was dissolved in PBS at different concentrations according to its water solubility. To quantitatively evaluate the aggregation ability, the transition temperature (T t) of the peptides was calculated from the change in optical density at a wavelength of 600 nm (OD600) associated with the increasing temperature (Table and Figure ).
The temperature-dependent self-assembly property of synthesized peptides was evaluated by using a JASCO V-660 spectral photometer (JASCO Co.). Each peptide was dissolved in PBS buffer or phosphate buffer solutions at various concentrations. Three types of phosphate buffers with the same ionic strength (μ = 0.100) but different pH (pH 7.4, 2.1, and 11.5) were prepared: phosphate buffer (pH 7.4, 29.4 mM Na2HPO4, 11.7 mM NaH2PO4), phosphate buffer (pH 2.1, 10.0 mM NaH2PO4, 10.5 mM phosphoric acid), and phosphate buffer (pH 11.5, 9.58 mM Na3PO4, 14.2 mM Na2HPO4). Turbidity was measured at 600 nm with increasing or decreasing temperature at a rate of 0.5 °C/min from 5 °C. The measurements were performed for the dark-adapted solution and after successive irradiation with UV light, visible light, and UV light. Each assay was repeated three times with different peptide solutions that were prepared separately. The phase separation property was described by the phase transition temperature (T t), which is the temperature at which the turbidity of the solution reaches half its maximum value.

[3] = not given; remark: listed apart in the source

Structure (SMILES): CC(C)[C@H](NC(=O)CNC(=O)[C@@H]1CCCN1C(=O)[C@H](Cc1ccccc1)NC(=O)CNC(=O)[C@@H](NC(=O)CNC(=O)[C@@H]1CCCN1C(=O)[C@H](Cc1ccccc1)NC(=O)[C@H](CCCCN)NC(=O)c1ccc(N=Nc2ccc(C(=O)N[C@@H](CCCCN)C(=O)N[C@@H](Cc3ccccc3)C(=O)N3CCC[C@H]3C(=O)NCC(=O)N[C@H](C(=O)NCC(=O)N[C@@H](Cc3ccccc3)C(=O)N3CCC[C@H]3C(=O)NCC(=O)N[C@H](C(=O)NCC(=O)O)C(C)C)C(C)C)cc2)cc1)C(C)C)C(=O)NCC(=O)O [Azb-2(K-F2)] (I: KFPGVGFPGVG-OH / II: KFPGVGFPGVG-OH; linker I:N-II:N via X1)
- peak wavelength n–π*: 430 nm
- thermal stability of the cis-enriched state, 12 h ([1]; 37 °C for 12 h, light-protected, 50 μM in PBS, UV–vis spectra): remained in a cis-enriched state
- time to reach the photostationary state with LED light ([1]; UV-A 365 nm LED of higher irradiance than for the spectrum measurements): approximately 5 min
- thermal stability of the cis-enriched state, 3 days ([1]; dark, after 3 days, UV–vis spectra (Figure S3)): retained its cis-isomer-enriched state
- Tt,UV (phase transition temperature) ([2]; after "UV" conditions 1 h, PBS pH 7.4, OD600, 0.5 °C/min, Tt at half-maximal turbidity, concentrations as in Table 2, n = 3): 35.08 ± 0.30 °C
- Tt,UV–vis (phase transition temperature) ([2]; after "UV–vis" conditions 1 h, PBS pH 7.4, OD600, 0.5 °C/min, Tt at half-maximal turbidity, concentrations as in Table 2, n = 3): 32.55 ± 0.67 °C
- Tt,UV–vis–UV (phase transition temperature) ([2]; after "UV–vis–UV" conditions 1 h, PBS pH 7.4, OD600, 0.5 °C/min, Tt at half-maximal turbidity, concentrations as in Table 2, n = 3): 35.94 ± 1.15 °C
- Tt, UV in phosphate buffer (PB) ([2]; after UV irradiation, PB pH 7.4 (ionic strength 0.100), 3.00 mg/mL (1.27 mM), OD600): 31.42 ± 0.78 °C
- Tt, dark in phosphate buffer (PB) ([2]; dark-adapted, PB pH 7.4 (ionic strength 0.100), Azb-2(K-F2) 3.00 mg/mL (1.27 mM), 2(D-F2)-Azb 1.50 mg/mL (0.66 mM), OD600): 27.57 ± 0.18 °C
- Tt,dark (phase transition temperature) ([2]; dark-adapted, PBS pH 7.4, OD600, 0.5 °C/min from 5 °C, Tt at half-maximal turbidity, F2-Azb-F2 100 μM, F2-Azb-F2-NH2 50 μM, Azb-2(K-F2) 1.27 mM, 2(F2-D)-Azb 0.66 mM, n = 3 separately prepared solutions): 32.09 ± 0.14 °C
- phase separation in acidic phosphate buffer ([2]; phosphate buffer pH 2.1, Azb-2(K-F2) 1.27 mM, 2(F2-D)-Azb 0.66 mM, turbidity OD600): did not show phase separation
- phase separation in neutral phosphate buffer ([2]; phosphate buffer pH 7.4, Azb-2(K-F2) 1.27 mM, 2(F2-D)-Azb 0.66 mM, turbidity OD600): underwent thermoresponsive phase separation
- phase separation in basic phosphate buffer ([2]; phosphate buffer pH 11.5, Azb-2(K-F2) 1.27 mM, 2(F2-D)-Azb 0.66 mM, turbidity OD600): did not show phase separation
- peak wavelength π–π* [3]: 330 nm
